In ChEMBL document CHEMBL4043253, “Synthesis of novel vitamin K derivatives with alkylated phenyl groups introduced at the ω-terminal side chain and evaluation of their neural differentiation activities” (Bioorg Med Chem Lett, 2017):
Activity calls are given as the source filed them. No cut-off for these calls is given here.

Experiments:
PC-12 [1] = assay: Cytotoxicity against rat PC12 cells by MTT assay; assay type: cell-based
Neural stem cell [2] = assay: Induction of neuronal differentiation in C57BL/6J mouse neural stem cells assessed as Map2 mRNA expression at 1 uM measured after 4 days by RT-PCR analysis; assay type: functional, cell-based
Neural stem cell [3] = assay: Induction of neuronal differentiation in C57BL/6J mouse neural stem cells assessed as expression of Map2 at 1 uM administered every 2 days for 4 days by CF594/DAPI immunostaining based fluorescence microscopic microscopic analysis; assay type: functional
PC-12 [4] = assay: Induction of neurite elongation in rat PC12 cells assessed as […] mRNA expression at 1 uM; assay type: functional, cell-based

| SMILES | Activity (PC-12 [1]) | Activity (Neural stem cell [2]) | Activity (Neural stem cell [3]) | Activity (PC-12 [4]) |
| --- | --- | --- | --- | --- |
| CC1=C(C/C=C(\C)CC/C=C(\C)Cc2cc(C)cc(C)c2)C(=O)c2ccccc2C1=O | Non-Toxic | – | – | – |
| CC1=C(C/C=C(\C)CC/C=C(\C)Cc2c(C)cc(C)cc2C)C(=O)c2ccccc2C1=O | Non-Toxic | – | – | – |
| CC1=C(C/C=C(\C)CC/C=C(\C)CC/C=C(\C)Cc2c(C)cc(C)cc2C)C(=O)c2ccccc2C1=O | Non-Toxic | – | – | – |
| CC1=C(C/C=C(\C)CC/C=C(\C)Cc2ccc(C)cc2C)C(=O)c2ccccc2C1=O | Non-Toxic | – | – | – |
| CC1=C(C/C=C(\C)CC/C=C(\C)CC/C=C(\C)Cc2cccc(C)c2C)C(=O)c2ccccc2C1=O | Non-Toxic | – | – | – |
| CC1=C(C/C=C(\C)CC/C=C(\C)CC/C=C(\C)Cc2ccc(C)cc2C)C(=O)c2ccccc2C1=O | Non-Toxic | – | – | – |
| CC1=C(C/C=C(\C)CC/C=C(\C)Cc2cccc(C(C)(C)C)c2)C(=O)c2ccccc2C1=O | Non-Toxic | Active | Active | – |
| CC1=C(C/C=C(\C)CC/C=C(\C)CC/C=C(\C)Cc2ccc(C)c(C)c2)C(=O)c2ccccc2C1=O | Non-Toxic | – | – | – |
| CC1=C(C/C=C(\C)CC/C=C(\C)CC/C=C(\C)Cc2cc(C)cc(C)c2)C(=O)c2ccccc2C1=O | Non-Toxic | – | – | – |
| CC1=C(C/C=C(\C)CC/C=C(\C)Cc2cccc(C)c2C)C(=O)c2ccccc2C1=O | Non-Toxic | Active | inactive | – |
| CC1=C(C/C=C(\C)CC/C=C(\C)CC/C=C(\C)Cc2cccc(C(C)(C)C)c2)C(=O)c2ccccc2C1=O | Non-Toxic | Active | Active | – |
| CC1=C(C/C=C(\C)CC/C=C(\C)Cc2ccc(C)c(C)c2)C(=O)c2ccccc2C1=O | Non-Toxic | Active | inactive | – |
| CC(C)=CCC/C(C)=C/CC/C(C)=C/CC/C(C)=C/CC1=C(C)C(=O)c2ccccc2C1=O [MENATETRENONE] | Non-Toxic | Active | – | inactive |
